Reference: BindingDB's records for doi:10.1016/0960-894X(96)00057-1 (1996)
pIC50: −log10 of the molar value.

Columns and labels:
[1] = Compound was tested for inhibition of HL60 cell adhesion to recombinant P-selectin-IgG fusion protein obtained from transfected COS cells
[2] = as above; remark: listed apart in the source

| pIC50 [1] | pIC50 [2] | Compound |
| --- | --- | --- |
| 3.05 | – | CC(=O)N[C@@H]1[C@H](OCCCCCC/N=C(S)/N=C2\C=CC(=C3c4ccc(O)cc4Oc4cc(O)ccc43)C(C(=O)O)=C2)O[C@@H](CO)[C@@H](O[C@@H]2O[C@@H](CO)[C@H](O)[C@H](O[C@]3(C(=O)O)C[C@@H](O)[C@@H](NC(C)=O)[C@H]([C@H](O)[C@H](O)CO)O3)[C@@H]2O)[C@@H]1O[C@@H]1O[C@@H](C)[C@@H](O)[C@H](O)[C@@H]1O |
| 4.59 | – | CC(=O)N[C@H]1[C@H]([C@H](O)[C@H](O)CO)O[C@@](O[C@@H]2[C@H](O)[C@H](O[C@H]3[C@H](O[C@@H]4O[C@@H](C)[C@@H](O)[C@H](O)[C@@H]4O)[C@H](NC(C)=O)[C@H](NC(=O)[C@H](C)NC(=O)[C@H](CC(=O)O)NC(=O)CNC(=O)[C@@H](N)CCCN=C(N)N)O[C@H]3CO)O[C@@H](CO)[C@@H]2O)(C(=O)O)C[C@H]1O |
| – | 2.82 | CC(=O)N[C@@H]1[C@H](OCCCCCCNC(=O)CCC(=O)O)O[C@@H](CO)[C@@H](O[C@@H]2O[C@@H](CO)[C@H](O)[C@H](O[C@]3(C(=O)O)C[C@@H](O)[C@@H](NC(C)=O)[C@H]([C@H](O)[C@H](O)CO)O3)[C@@H]2O)[C@@H]1O[C@@H]1O[C@@H](C)[C@@H](O)[C@H](O)[C@@H]1O [Sialyl-LewisX Conjugate] |
| – | 3.42 | CC(=O)N[C@@H]1[C@H](OCCCCCCNC(=O)[C@H]2CC[C@H](CN3C(=O)C=CC3=O)CC2)O[C@@H](CO)[C@@H](O[C@@H]2O[C@@H](CO)[C@H](O)[C@H](O[C@]3(C(=O)O)C[C@@H](O)[C@@H](NC(C)=O)[C@H]([C@H](O)[C@H](O)CO)O3)[C@@H]2O)[C@@H]1O[C@@H]1O[C@@H](C)[C@@H](O)[C@H](O)[C@@H]1O [Sialyl-LewisX Conjugate] |
